Data as given in ChEMBL document CHEMBL5291721, “A preclinical secondary pharmacology resource illuminates target-adverse drug reaction associations of marketed drugs” (Nat Commun, 2023).

Experiments:
[1] = molecular target: T1, Adenosine receptor A3 (Homo sapiens, UniProt P0DMS8)
T1 sequence (P0DMS8 whole entry): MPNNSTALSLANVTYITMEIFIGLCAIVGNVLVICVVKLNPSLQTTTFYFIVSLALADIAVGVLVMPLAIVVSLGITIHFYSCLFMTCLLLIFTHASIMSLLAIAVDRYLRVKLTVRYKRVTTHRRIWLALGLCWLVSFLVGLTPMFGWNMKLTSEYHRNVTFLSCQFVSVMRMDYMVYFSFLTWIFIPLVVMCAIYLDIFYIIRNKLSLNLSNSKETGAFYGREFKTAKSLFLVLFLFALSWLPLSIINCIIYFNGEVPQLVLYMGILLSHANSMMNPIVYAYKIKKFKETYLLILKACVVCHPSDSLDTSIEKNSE

[2] = molecular target: Motilin receptor (Homo sapiens, UniProt O43193)
Chain of Motilin receptor (O43193 whole entry): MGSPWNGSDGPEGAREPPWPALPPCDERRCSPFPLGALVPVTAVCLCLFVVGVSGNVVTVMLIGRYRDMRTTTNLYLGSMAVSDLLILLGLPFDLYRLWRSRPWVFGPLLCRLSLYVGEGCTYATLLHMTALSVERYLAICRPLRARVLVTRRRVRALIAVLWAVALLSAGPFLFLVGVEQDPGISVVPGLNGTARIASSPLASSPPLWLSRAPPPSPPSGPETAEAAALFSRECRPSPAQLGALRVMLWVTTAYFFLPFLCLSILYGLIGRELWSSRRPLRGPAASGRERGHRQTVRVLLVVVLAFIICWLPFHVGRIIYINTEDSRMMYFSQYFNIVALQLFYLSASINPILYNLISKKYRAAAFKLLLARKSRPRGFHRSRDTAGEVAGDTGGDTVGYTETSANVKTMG

[3] = molecular target: Neuronal acetylcholine receptor subunit alpha-4 (Homo sapiens, UniProt P43681)
Chain of Neuronal acetylcholine receptor subunit alpha-4 (P43681 whole entry): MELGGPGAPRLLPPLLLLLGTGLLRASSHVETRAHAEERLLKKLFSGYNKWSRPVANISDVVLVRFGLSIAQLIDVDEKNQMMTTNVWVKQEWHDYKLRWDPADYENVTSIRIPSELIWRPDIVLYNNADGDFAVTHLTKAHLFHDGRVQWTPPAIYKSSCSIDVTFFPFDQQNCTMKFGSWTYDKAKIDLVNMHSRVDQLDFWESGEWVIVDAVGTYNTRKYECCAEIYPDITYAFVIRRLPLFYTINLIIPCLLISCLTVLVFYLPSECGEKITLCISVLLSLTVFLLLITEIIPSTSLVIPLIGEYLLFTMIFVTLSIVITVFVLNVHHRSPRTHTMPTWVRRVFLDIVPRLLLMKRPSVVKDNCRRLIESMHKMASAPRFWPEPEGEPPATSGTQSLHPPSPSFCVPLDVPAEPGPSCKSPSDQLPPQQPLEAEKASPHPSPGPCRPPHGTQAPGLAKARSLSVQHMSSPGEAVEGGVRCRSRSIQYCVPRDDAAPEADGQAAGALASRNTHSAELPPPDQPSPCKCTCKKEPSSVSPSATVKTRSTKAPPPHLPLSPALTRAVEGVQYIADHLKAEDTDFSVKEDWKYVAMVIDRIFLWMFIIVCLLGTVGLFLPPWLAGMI

[4] = molecular target: Voltage-dependent L-type calcium channel subunit alpha-1C (Rattus norvegicus, UniProt P22002); format: functional
Chain of Voltage-dependent L-type calcium channel subunit alpha-1C (P22002 whole entry): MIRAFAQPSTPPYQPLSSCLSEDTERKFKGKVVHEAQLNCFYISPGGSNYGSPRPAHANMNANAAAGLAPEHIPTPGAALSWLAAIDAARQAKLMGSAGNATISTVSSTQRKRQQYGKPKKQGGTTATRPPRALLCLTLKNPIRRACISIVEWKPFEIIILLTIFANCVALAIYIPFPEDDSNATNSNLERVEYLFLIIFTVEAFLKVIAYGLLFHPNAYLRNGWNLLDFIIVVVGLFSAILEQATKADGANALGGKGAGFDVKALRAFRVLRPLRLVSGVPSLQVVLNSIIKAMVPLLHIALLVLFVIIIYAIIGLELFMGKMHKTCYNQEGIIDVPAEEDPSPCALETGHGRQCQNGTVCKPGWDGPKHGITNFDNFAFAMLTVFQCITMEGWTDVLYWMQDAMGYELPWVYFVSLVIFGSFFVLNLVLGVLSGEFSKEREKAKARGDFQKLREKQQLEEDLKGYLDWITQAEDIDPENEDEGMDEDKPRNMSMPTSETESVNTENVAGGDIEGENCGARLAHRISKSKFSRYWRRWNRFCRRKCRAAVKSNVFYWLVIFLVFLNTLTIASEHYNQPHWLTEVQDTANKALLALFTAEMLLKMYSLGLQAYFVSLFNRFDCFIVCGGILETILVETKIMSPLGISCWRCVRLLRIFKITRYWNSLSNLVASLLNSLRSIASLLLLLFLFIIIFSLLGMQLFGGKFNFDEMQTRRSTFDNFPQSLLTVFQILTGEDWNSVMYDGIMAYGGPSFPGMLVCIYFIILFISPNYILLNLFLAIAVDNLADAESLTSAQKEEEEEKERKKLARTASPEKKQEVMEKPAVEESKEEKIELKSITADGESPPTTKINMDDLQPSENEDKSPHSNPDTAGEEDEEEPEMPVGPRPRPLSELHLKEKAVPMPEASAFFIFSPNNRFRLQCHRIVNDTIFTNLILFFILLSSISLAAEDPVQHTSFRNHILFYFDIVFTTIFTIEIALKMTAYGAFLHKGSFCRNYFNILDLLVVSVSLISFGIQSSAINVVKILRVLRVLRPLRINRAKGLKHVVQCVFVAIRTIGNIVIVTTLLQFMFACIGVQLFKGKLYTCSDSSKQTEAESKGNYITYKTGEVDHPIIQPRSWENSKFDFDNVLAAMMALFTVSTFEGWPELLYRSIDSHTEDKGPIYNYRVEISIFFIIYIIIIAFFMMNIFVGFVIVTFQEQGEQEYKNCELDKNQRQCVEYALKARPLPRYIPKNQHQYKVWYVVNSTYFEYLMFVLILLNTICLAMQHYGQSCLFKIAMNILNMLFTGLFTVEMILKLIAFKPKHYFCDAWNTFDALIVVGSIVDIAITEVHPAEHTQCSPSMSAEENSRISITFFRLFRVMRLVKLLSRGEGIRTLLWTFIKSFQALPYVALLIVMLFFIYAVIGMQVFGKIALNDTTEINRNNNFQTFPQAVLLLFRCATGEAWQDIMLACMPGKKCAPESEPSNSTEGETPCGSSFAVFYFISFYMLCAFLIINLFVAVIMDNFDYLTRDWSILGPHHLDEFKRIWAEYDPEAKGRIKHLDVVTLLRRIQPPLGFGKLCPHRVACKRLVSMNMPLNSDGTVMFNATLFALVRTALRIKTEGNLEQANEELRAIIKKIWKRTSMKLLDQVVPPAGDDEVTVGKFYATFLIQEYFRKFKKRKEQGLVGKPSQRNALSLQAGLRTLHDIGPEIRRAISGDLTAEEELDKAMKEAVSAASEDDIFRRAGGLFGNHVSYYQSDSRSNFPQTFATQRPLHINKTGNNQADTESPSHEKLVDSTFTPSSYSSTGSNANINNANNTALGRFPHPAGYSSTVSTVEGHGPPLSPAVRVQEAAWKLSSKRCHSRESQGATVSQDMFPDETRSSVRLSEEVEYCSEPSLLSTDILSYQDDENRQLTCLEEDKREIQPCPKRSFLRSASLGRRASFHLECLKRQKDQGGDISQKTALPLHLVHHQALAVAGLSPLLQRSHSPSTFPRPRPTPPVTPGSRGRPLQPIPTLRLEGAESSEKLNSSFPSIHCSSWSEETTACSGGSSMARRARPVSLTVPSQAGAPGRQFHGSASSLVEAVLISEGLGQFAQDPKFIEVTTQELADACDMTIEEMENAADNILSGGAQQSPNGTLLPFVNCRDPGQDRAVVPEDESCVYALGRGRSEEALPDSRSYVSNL

[5] = molecular target: Histamine H1 receptor (Homo sapiens, UniProt P35367)
Chain of Histamine H1 receptor (P35367 whole entry): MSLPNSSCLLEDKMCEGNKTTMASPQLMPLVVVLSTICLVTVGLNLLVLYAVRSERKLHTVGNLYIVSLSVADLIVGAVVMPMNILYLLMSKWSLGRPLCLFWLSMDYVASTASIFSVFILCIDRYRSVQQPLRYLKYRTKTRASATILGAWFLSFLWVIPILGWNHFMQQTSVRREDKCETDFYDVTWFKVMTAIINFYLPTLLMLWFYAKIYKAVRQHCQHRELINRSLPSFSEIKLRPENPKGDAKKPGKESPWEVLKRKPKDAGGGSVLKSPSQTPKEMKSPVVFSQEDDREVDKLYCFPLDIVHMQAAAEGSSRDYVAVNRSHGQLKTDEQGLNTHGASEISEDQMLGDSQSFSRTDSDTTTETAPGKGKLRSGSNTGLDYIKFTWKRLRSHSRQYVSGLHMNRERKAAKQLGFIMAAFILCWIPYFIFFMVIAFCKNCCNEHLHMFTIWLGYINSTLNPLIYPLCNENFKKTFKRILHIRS

[6] = molecular target: T2, Gastrin/cholecystokinin type B receptor (Homo sapiens, UniProt P32239)
T2 sequence (P32239 whole entry): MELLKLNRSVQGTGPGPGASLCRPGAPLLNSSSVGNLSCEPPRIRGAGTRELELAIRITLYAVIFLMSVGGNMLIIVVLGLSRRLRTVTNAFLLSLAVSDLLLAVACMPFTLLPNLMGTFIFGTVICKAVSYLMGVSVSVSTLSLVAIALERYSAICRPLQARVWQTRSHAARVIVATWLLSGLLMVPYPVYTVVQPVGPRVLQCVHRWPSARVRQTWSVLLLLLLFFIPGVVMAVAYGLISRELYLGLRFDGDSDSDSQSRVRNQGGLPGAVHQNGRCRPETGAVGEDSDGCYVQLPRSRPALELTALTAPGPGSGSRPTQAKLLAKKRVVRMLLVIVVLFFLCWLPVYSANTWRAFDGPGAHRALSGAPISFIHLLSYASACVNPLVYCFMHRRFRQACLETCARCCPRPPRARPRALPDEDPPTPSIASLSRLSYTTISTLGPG

[7] = molecular target: Sodium-dependent noradrenaline transporter (Homo sapiens, UniProt P23975)
Chain of Sodium-dependent noradrenaline transporter (P23975 whole entry): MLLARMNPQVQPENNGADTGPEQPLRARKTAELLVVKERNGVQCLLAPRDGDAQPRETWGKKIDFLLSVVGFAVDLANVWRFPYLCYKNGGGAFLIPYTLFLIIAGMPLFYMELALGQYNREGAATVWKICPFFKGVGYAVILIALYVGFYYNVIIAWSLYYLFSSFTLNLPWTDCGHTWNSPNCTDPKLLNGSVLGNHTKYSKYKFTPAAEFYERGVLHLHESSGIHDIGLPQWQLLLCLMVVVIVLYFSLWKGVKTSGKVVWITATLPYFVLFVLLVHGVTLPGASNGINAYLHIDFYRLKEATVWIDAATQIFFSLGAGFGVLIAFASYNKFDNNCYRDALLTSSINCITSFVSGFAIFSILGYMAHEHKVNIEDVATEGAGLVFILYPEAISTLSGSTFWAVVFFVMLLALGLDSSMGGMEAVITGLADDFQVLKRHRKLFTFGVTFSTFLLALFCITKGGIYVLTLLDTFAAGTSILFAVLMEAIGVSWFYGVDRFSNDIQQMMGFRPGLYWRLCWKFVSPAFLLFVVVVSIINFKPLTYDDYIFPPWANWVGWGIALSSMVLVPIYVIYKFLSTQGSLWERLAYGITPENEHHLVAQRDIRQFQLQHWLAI

[8] = molecular target: T3, Muscarinic acetylcholine receptor M2 (Homo sapiens, UniProt P08172); format: functional, cell-based
T3 sequence (P08172 whole entry): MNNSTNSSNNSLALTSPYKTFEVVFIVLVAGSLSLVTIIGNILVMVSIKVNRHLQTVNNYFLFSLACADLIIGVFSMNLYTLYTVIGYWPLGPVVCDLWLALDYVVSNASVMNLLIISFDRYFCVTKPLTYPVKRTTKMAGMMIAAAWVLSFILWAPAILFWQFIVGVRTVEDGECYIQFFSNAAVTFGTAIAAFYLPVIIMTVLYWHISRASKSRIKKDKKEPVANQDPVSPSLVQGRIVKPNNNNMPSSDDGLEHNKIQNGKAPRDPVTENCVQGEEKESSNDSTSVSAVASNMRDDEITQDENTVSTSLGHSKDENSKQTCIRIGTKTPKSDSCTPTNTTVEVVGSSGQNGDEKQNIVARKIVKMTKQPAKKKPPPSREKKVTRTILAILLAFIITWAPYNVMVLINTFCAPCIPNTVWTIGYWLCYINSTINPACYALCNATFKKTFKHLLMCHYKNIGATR

[9] = molecular target: Kappa-type opioid receptor (Homo sapiens, UniProt P41145)
Chain of Kappa-type opioid receptor (P41145 whole entry): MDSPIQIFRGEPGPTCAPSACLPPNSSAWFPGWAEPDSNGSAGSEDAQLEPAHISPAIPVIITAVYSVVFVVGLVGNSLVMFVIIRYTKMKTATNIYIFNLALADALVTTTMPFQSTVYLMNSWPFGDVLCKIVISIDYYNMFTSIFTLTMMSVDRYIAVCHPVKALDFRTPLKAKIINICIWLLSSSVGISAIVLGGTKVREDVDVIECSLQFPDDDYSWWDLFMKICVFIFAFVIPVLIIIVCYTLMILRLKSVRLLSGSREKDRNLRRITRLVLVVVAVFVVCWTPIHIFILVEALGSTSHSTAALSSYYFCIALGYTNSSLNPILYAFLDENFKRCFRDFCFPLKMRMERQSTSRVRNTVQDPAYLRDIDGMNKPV

[10] = molecular target: T4, B2 bradykinin receptor (Homo sapiens, UniProt P30411)
T4 sequence (P30411 whole entry): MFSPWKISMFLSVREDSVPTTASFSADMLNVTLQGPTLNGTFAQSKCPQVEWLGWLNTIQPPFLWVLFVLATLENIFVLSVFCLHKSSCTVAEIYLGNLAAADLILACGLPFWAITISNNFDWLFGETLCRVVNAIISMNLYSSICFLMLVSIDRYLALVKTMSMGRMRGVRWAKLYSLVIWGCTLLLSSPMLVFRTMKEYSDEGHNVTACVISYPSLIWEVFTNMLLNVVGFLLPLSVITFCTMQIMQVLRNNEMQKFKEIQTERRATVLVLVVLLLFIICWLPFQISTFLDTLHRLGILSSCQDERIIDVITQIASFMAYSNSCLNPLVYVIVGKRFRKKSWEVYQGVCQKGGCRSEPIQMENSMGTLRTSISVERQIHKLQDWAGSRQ

[11] = molecular target: Beta-2 adrenergic receptor (Homo sapiens, UniProt P07550)
Also: assay procedure not described here.

AC50 [1] [µM]	AC50 [2] [µM]	AC50 [3] [µM]	AC50 [4] [µM]	AC50 [5] [µM]	AC50 [6] [µM]	AC50 [7] [µM]	AC50 [8] [µM]	AC50 [9] [µM]	AC50 [10] [µM]	AC50 [11] [µM]	SMILES
> 30	7.8	> 30	> 30	> 30	> 30	> 30	> 30	> 30	> 30	–	C=C[C@@]1(C)CC(=O)[C@]2(O)[C@@]3(C)[C@@H](O)CCC(C)(C)[C@@H]3[C@H](OC(=O)CCN(C)C)[C@H](OC(C)=O)[C@@]2(C)O1
> 30	> 30	> 30	–	–	> 30	> 30	> 30	> 30	> 30	–	Nc1ccc(C(=O)O)c(O)c1 [AMINOSALICYLIC ACID]
> 10	> 10	> 10	> 10	> 10	–	> 30	> 10	> 10	> 10	> 10	NS(=O)(=O)c1cc2c(cc1C(F)(F)F)NC(Cc1ccccc1)NS2(=O)=O (configuration not stated) [BENDROFLUMETHIAZIDE]
> 30	> 30	> 30	> 30	–	> 30	> 30	> 30	4.3	> 30	> 30	COc1cc(OC)c(C(=O)CCCN2CCCC2)c(OC)c1 [BUFLOMEDIL]
> 30	> 30	> 30	> 30	–	> 30	> 30	> 30	> 30	> 30	> 30	CCCCCCNC(=O)n1cc(F)c(=O)[nH]c1=O [CARMOFUR]
4.8	24	> 30	–	> 30	> 30	> 30	> 30	> 30	> 30	–	COCCOC(=O)C1=C(C)NC(C)=C(C(=O)OC/C=C/c2ccccc2)C1c1cccc([N+](=O)[O-])c1 (configuration not stated) [CILNIDIPINE]
26.5	> 30	10.8	> 30	–	> 30	10.4	–	> 30	> 10	> 30	COc1cccc2c1C(=O)c1c(O)c3c(c(O)c1C2=O)C[C@@](O)(C(C)=O)C[C@@H]3O[C@H]1C[C@H](N)[C@H](O)[C@H](C)O1 [DAUNORUBICIN]
12.5	> 10	> 10	> 10	> 10	> 30	> 30	> 10	> 10	> 30	> 10	N[C@H](Cc1cc(I)c(Oc2cc(I)c(O)c(I)c2)c(I)c1)C(=O)O [DEXTROTHYROXINE]

SMILES	AC50 [1] [µM]	AC50 [2] [µM]	AC50 [3] [µM]	AC50 [4] [µM]	AC50 [5] [µM]	AC50 [6] [µM]	AC50 [7] [µM]	AC50 [8] [µM]	AC50 [9] [µM]	AC50 [10] [µM]	AC50 [11] [µM]
NCCCC(O)(P(=O)(O)O)P(=O)(O)O [ALENDRONIC ACID]	> 30	> 10	> 10	> 10	–	> 30	–	–	> 10	> 30	> 10
CC(C)(C)NCC(O)c1cc(Cl)c(N)c(Cl)c1 (configuration not stated) [CLENBUTEROL]	> 30	> 30	> 30	> 30	–	> 30	27.9	> 30	28	> 30	–
C[C@@H]1C[C@H]2[C@@H]3C[C@H](F)C4=CC(=O)C=C[C@]4(C)[C@@]3(F)[C@@H](O)C[C@]2(C)[C@H]1C(=O)CO [DIFLUCORTOLONE]	> 30	–	–	–	> 30	–	> 30	–	–	–	–
